Results taken from publication PMC12677653, “Inhibition of Tumor Lipogenesis and Growth by Peptide‐Based Targeting of SREBP Activation” (Advanced Science, 2025).
One block for each molecule: values may come before it. Residues, ends and D or L forms follow the SMILES beside them.

Columns and labels:
[1] = tested on: lipid accumulation in tumor tissues; assay: Oil Red O staining of tumor tissues; format: in vivo, BALB/c athymic nude mice; settings: cryosections of Huh7 tumors, n = 4; peptide given as LNP 10 mg/kg iv; lenvatinib mesylate 2 mg/kg oral
Method: (§1) Representative micrographs are shown (scale bar: 20 µm). b,c) Cryosections of mouse tumor tissues were prepared for histological analysis. (b) Lipid accumulation was assessed by Oil Red O staining. Representative micrographs are shown (scale bar: 20 µm). (c) Apoptotic cells were detected by TUNEL assay. Representative micrographs are shown (scale bar: 20 µm). d,e) Quantitative analysis of (d) apoptotic areas (TUNEL‐positive regions) and (e) lipid droplet counts (Oil Red O‐positive particles) was performed. Data represent the mean ± SD (n = 4). Statistical significance was determined by one‐way analysis of variance (ANOVA). ** p < 0.01, **** p < 0.0001, ns, no significance.
Cryosections 6–8 µm in thickness were air‐dried and fixed with formaldehyde for 5–10 min. Then, the slides were placed in absolute propylene glycol for 2–5 min and stained with 0.5% Oil red O dye. After staining, the slides were rinsed, counterstained with Mayer's hematoxylin for 1 min, and mounted in glycerin.

[2] = tested on: Insig1 pS207/Insig2 pS151, SREBP1, Ki67; assay: IHC analysis of mouse tumors derived from Huh7 cells; format: in vivo, BALB/c athymic nude mice; settings: peptide given as LNP@Insig1/2 loop 1 peptide 10 mg/kg iv, lenvatinib mesylate 2 mg/kg oral
Method: as §1
As described previously,^[ [39] ^] IHC staining was performed using the Vectastain ABC kit (Vector Laboratories) according to the manufacturer's instructions. Sections of paraffin‐embedded xenograft tumors were stained with antibodies against Ki67, SREBP1, Insig1 pS207/Insig2 pS151, and nonspecific IgG was used as a negative control. Paraffin‐embedded human liver tumor sections were stained with antibodies against Ki67, SREBP1, Insig1 pS207/Insig2 pS151, with nonspecific IgG as a negative control. The tissue sections were quantitatively scored according to the percentage of positive cells and staining intensity. […] The intensity of staining was rated on a scale of 0 to 3: 0, negative; 1, weak; 2, moderate; and 3, strong. The study then combined the proportion and intensity scores to obtain a total score (range, 0–8).

[3] = tested on: tumor cell apoptosis; assay: TUNEL assay of tumor tissues; format: in vivo, BALB/c athymic nude mice; settings: cryosections of Huh7 tumors, n = 4; peptide given as LNP 10 mg/kg iv; lenvatinib mesylate 2 mg/kg oral
Method: as §1
Mouse tumor tissues were sectioned at 5 µm thickness. Apoptotic cells were counted using the colorimetric TUNEL System (Beyotime, C1091) according to the manufacturer's instructions. The total numbers of apoptotic cells were counted in six high‐power fields and presented as an average number of apoptotic cells per high‐power fields.

[4] = tested on: Huh7 cells; assay: Cellular peptide uptake, western blot; format: in vitro ADME, human; settings: biotin-labeled peptide 15 μM, 30 min, TAT versus TAT-LOF sequence
Method: d) Huh7 cells were incubated for 30 min with biotin-labeled Insig1/2 loop1 peptide (15 μM), either with TAT or TAT loss of function (TAT-LOF) sequence, with subsequent western blot analysis of cellular peptide uptake.

[5] = target: T1, WT GST-PCK1 (human, UniProt P35558 1-622, biotin (G-MM-IGT Biotinylation kit)); assay: BLI
T1 chain: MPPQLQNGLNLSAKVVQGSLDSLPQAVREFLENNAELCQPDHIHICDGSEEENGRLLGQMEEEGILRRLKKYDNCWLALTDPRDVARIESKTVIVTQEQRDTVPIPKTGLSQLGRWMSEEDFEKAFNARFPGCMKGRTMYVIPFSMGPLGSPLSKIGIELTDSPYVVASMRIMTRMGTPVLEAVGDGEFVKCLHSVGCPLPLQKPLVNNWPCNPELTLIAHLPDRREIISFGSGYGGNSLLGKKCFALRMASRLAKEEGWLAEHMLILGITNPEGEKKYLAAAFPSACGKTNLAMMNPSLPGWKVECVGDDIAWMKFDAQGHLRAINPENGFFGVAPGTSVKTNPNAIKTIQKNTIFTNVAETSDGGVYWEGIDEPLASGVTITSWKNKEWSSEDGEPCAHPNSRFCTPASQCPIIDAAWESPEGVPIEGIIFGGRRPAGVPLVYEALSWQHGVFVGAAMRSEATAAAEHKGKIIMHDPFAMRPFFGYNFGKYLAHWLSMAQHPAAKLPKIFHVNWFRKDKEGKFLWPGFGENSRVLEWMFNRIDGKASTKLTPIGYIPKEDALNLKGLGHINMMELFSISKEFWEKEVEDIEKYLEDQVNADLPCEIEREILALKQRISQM

[6] = target: T2, S90-phosphorylated GST-PCK1 (human, UniProt P35558 1-622, phosphoserine at 90; biotin (G-MM-IGT Biotinylation kit)); assay: BLI; phosphorylated S90
T2 chain: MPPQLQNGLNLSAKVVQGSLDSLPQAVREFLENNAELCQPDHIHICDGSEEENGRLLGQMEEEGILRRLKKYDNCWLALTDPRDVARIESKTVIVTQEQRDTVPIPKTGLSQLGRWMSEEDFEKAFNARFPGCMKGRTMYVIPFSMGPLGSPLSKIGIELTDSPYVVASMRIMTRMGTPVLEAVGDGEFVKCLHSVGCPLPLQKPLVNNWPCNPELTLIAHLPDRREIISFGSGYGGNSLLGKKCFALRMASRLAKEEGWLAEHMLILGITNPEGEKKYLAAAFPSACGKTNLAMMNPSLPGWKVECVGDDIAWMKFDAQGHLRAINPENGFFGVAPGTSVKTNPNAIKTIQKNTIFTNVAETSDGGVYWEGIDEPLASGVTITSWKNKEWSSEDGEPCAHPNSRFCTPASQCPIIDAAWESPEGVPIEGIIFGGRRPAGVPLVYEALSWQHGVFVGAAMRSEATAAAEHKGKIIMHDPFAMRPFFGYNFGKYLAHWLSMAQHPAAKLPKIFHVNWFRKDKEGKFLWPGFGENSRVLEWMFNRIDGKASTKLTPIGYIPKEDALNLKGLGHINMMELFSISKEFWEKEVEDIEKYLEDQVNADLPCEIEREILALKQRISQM

Molecule: COc1cc2nccc(Oc3ccc(NC(=O)NC4CC4)c(Cl)c3)c2cc1C(N)=O [lenvatinib, reference compound]
lipid accumulation in tumor tissues (Oil Red O) [1]: reductions were also observed | Insig1 S207/Insig2 S151 phosphorylation in tumors [2]: reductions were also observed | Ki67 expression in tumors [2]: reductions were also observed | SREBP1 expression and nuclear accumulation in tumors [2]: reductions were also observed | cell apoptosis in tumor tissues (TUNEL) [3]: induced cell apoptosis in tumor tissues

Molecule: CC[C@H](C)[C@H](NC(=O)[C@H](CS)NC(=O)[C@@H]1CCCN1C(=O)[C@H](Cc1ccc(O)cc1)NC(=O)[C@H](CC(C)C)NC(=O)CCCC[C@@H]1SC[C@@H]2NC(=O)N[C@@H]21)C(=O)N[C@@H](CC(=O)O)C(=O)N[C@@H](CO)C(=O)N[C@@H](Cc1c[nH]cn1)C(=O)N[C@@H](CC(C)C)C(=O)NCC(=O)N[C@@H](CCC(=O)O)C(=O)N1CCC[C@H]1C(=O)N[C@@H](Cc1c[nH]cn1)C(=O)N[C@@H](CCCCN)C(=O)N[C@@H](Cc1ccccc1)C(=O)N[C@@H](CCCCN)C(=O)N[C@@H](CCCNC(=N)N)C(=O)N[C@@H](CCC(=O)O)C(=O)N[C@@H](C)C(=O)N[C@@H](C)C(=O)N[C@@H](CCC(=O)O)C(=O)N[C@@H](C)C(=O)N[C@@H](C)C(=O)N[C@@H](CCC(N)=O)C(=O)N[C@@H](C)C(=O)N[C@@H](C)C(=O)N[C@@H](CCC(=O)O)C(=O)O [Biotin‐peptide‐TAT LOF] (HELM PEPTIDE1{[O=C1N[C@H]2[C@H](CS[C@H]2CCCCC(=O)[*:2])N1].L.Y.P.C.I.D.S.H.L.G.E.P.H.K.F.K.R.E.A.A.E.A.A.Q.A.A.E}$$$$V2.0)
peptide accumulation in tumor cells in vitro [4]: substantially reduced peptide accumulation

Kd [5]: 36.8 µM | Kd [6]: 10.5 µM
Molecule: LYPCIDSHLGEPHKFKRE [Insig1/2 loop 1 peptide (143-LYPCIDSHLGEPHKFKRE-160)]
